Experimental data reported in patent US12115176B2, “Methods and compositions relating to ClbP inhibition” (PRESIDENT AND FELLOWS OF HARVARD COLLEGE, priority 2021, dated 2024).
Entries after “also recorded” stand apart in the source; their conditions may differ.

Experiments:
[1] = tested on: HeLa cells infected with NC101; assay: HeLa infection assay with pks+ E. coli, cell cycle analysis by flow cytometry; type: cell-based, human
Experimental: Infection with pks^+ E. coli. Assays for cell-cycle arrest and FANCD2 ubiquitination were performed by seeding 24-well plates with 125,000 HeLa cells per well and incubating those plates under standard conditions for 24 hours. At the same time, cultures of NC101 and NC101ΔclbP were started from frozen stocks in LB broth and grown at 37° C. with shaking overnight. […] Cultures were monitored until an OD600 of 0.3-0.5 was reached. At that point, samples of the cultures were removed and DMSO stock solutions of the inhibitor of interest were added to each sample to a final concentration of 1% DMSO and the concentration of inhibitor indicated.
Media in the 24-well plate was aspirated, HeLa cells were washed with sterile DPBS (Thermo Fisher Scientific), and fresh DMEM+FBS+1% DMSO with the indicated concentration of inhibitor was added. A volume of E. coli equivalent to 2.5×10^7 bacteria based on OD in DMEM+FBS+1% DMSO with the indicated concentration of inhibitor was then added directly to wells (Multiplicity of Infection, MOI 1:100). Infections were carried out for 4 hours at 37° C. in a humidified 5% CO2 incubator. Media was then aspirated and cells were washed with DPBS twice to remove bacteria, and fresh DMEM+FBS+PSF supplemented with 50 μg/mL gentamicin was added.
Cell Cycle Analysis. Between 20 and 24 hours after infection, HeLa cells were trypsinized (0.25% Trypsin-EDTA, Gibco), washed with DPBS, and fixed in cold 70% ethanol and stored at 4° C. until flow cytometry analysis (24-48 hours). Cells were centrifuged at 800×g for 10 minutes and 70% ethanol was aspirated. Cells were resuspended in DPBS for 15 minutes, then centrifuged and supernatant aspirated again. Cells were then resuspended in DPBS with 0.2 mg/mL RNAse A (Invitrogen) and 0.02 mg/mL propidium iodide (Millipore Sigma). After 30 minutes, cells were analyzed on a BD LSR II Analyzer at the Harvard University Bauer Core Flow Cytometry Facility. For each replicate, 10,000 events were collected and results were gated for single cells and plotted using the FloJo™ software package.

Bifidobacterium longum = assay: Bacterial MIC assay (broth dilution); type: cell-based; conditions: 15 h, read-out: MICs by compound
E. coli BW25113 BACpks = assay: Metabolomics (LC-MS, XCMS); type: cell-based; conditions: BW pks (and NC101), 1 μM 3 versus DMSO
Experimental: Metabolomics. One 5 mL starter culture each of E. coli BW25113 BACpks and E. coli BW25113 BACpksΔclbP was inoculated from frozen stocks and grown overnight at 37° C. in LB medium supplemented with 35 μg/ml chloramphenicol (LB+cam). Overnights were diluted 1:1000 in fresh LB+cam+1% DMSO with or without 1 μM inhibitor 3 in 5 replicates for each condition and grown for 20 hours at 37° C. A 500 μL aliquot was taken from each replicate, flash frozen in liquid nitrogen and lyophilized to dryness. Lyophilized pellets were extracted with 500 μL LC-MS grade methanol and prepared in the same manner as described above for metabolomics. Samples were analyzed by LC-MS on an Agilent Technologies 1200 series LC with a Phenomenex Luna C18 column (5 μm, 100 Å, 250×4.6 mm) coupled to an Agilent 6530 Quadrupole-Time of Flight mass spectrometer. The following chromatography conditions were used: 99% Solvent A in Solvent B for 1.5 minutes, linear gradient to 0% Solvent A in Solvent B over 43.5 minutes, 0% Solvent A for 8 minutes, linear gradient back to 99% Solvent A over 1 minute, equilibration in 99% solvent A for 9 minutes at flow rate of 0.4 mL/min and a 10 uL injection volume. Solvent A is water with 0.1% formic acid, solvent B is acetonitrile with 0.1% formic acid. […]

[2] = tested on: serine hydrolases in E. coli cell lysates; assay: Gel-based ABPP with fluorophosphonate probe (FP); type: binding; conditions: inhibitor up to 100 μM
Description: To further explore other possible targets of inhibitors 1-4, an activity-based protein profiling (ABPP) approach was used to assay their activity against a wide variety of serine hydrolases in bacterial and mammalian proteomes. […] One limitation of this assay is that ClbP is not labeled by the FP probe, so it cannot be observed as a reference for binding. Any other proteins which evade labeling by FP would also not be detected in this assay.
Activity-Based Protein Profiling. Bacterial or mammalian cell lysates were normalized to 1 mg/mL protein concentrations in PBS using the DC protein assay (Bio-Rad). 50 μL aliquots of lysates were incubated with compounds at the indicated concentrations (1 μL of a 50X stock in DMSO) for 30 minutes at room temperature and subsequently labeled with 5 μM of fluorophosphonate-PEG(4)-biotin probe (1 μL of a 50X stock in DMSO, synthesized as previously reported)^56 for 1 hour at room temperature. The reactions were mixed with 50 μL of 2X SDS protein loading buffer, boiled for 10 minutes at 95° C., and separated by SDS-PAGE. The labeled proteins were detected by IRdye-conjugated streptavidin (Li-Cor) and visualized using the GellOdyssey™ Imaging System (Li-Cor).^56

Escherichia coli NC101 = assay: Bacterial MIC assay (broth dilution); type: cell-based; conditions: Escherichia coli, NC101, 15 h, read-out: MICs by compound
Experimental: MICs of compounds against different bacterial species were determined using a modified version of a broth microdilution protocol which has been previously reported.^1 Briefly, cultures of each species indicated were inoculated from frozen stocks in deoxygenated Wilkins-Chalgren Anaerobic Medium (WCAM) inside of an anerobic chamber with an 92.5% N2/5% CO2/2.5% H2 atmosphere. Cultures were grown for 24-48 hours in a 37° C. incubator at which point an OD600-measurement was taken for each culture and was accordingly diluted in fresh WCAM to an equivalent of OD600=0.01. Diluted cultures were then distributed into the wells of a clear, flat-bottom 384-well plate and the compound of interest was added to a final DMSO concentration of 2% (or DMSO only for positive controls). […] mineral oil (Millipore Sigma) was deposited on top of the cultures and plates were covered with a clear adhesive plate seal. Plates were incubated at 37° C. for 16 hours, at which point the OD600 of all wells was recorded on a SpectraMax M2 plate reader (Molecular Devices).

CC1(C)OB([C@@H](CC(N)=O)NC(=O)CCCc2ccccc2)OC1(C)C [Compound 3]
concentration that completely blocks G2/M phase cell cycle arrest ([1]; HeLa and NC101, inhibitor in the infection medium, FIG. 12A): ≤ 100 nM | concentration that completely blocks G2/M phase cell cycle arrest ([1]; HeLa and pks+ E. coli, 1-hour preincubation of inhibitor with E. coli, FIG. 4): ≤ 5 nM | cell cycle arrest phenotype of colibactin genotoxicity ([1]; HeLa cells infected with NC101, propidium iodide flow cytometry): can block the cell cycle arrest phenotype; also recorded: prevents cell cycle arrest | IC50 ([1]; Homo sapiens, HeLa cells infected with pks+ E. coli, FIG. 4, read-out: apparent IC50 for inhibition of G2/M-phase arrest): ~0.01 µM | MIC (Bifidobacterium longum): > 200 µM | changes in metabolites versus clbP deletion (E. coli BW25113 BACpks): resulted in the same changes in metabolites as genetic deletion of clbP | change in protein labeling by FP probe [2]: does not identify any significant targets | MIC (Escherichia coli NC101): > 200 µM
